Measurements published in publication PMC8618024 (2021).
Entries after “also recorded” stand apart in the source; their conditions may differ.

Assays:
[1] = Strain m6 cells resuspended in sterile MSM (mineral salt medium); conditions: Sphingopyxis sp. m6, 30 °C, up to six days
[2] = Strain m6 cells in MSM, pH 7, at 40 °C; conditions: Sphingopyxis sp. m6, 40 °C, up to six days
[3] = Sphingomonas sp. B-9 cells; conditions: cited from earlier work
[4] = suspension of HMBP-pET28a/BL21 (negative control) in sterile water; conditions: HMBP-pET28a/BL21, 37 °C, up to 144 h
[5] = natural microbial communities in sediments; conditions: cited from earlier work
MlrA = assay: suspension of intact recombinant mlrA-HMBP-pET28a/BL21 in sterile water; conditions: mlrA-HMBP-pET28a/BL21, 37 °C, up to 144 h
[6] = CEs from HMBP-pET28a/BL21 (negative control) in sterile water; conditions: HMBP-pET28a/BL21, 37 °C, up to 12 h
recombinant MlrA = assay: CEs (cell-free extracts) of recombinant mlrA-HMBP-pET28a/BL21 in sterile water; conditions: mlrA-HMBP-pET28a/BL21, 37 °C, up to 48 h

Substance: D-MeAsp, L-Arg, Adda, D-Glu, and Mdhb
- cleaved bond [1]: Arg-Adda, first_seen; also recorded: Adda-Glu; also recorded: Glu-Mdhb; also recorded: Mdhb-MeAsp
- not cleaved [2]: the toxin concentration barely decreased
- fragment found [3]: linear NOD and Adda
- not cleaved [4]: remaining essentially unchanged
- fragment found [5]: linear NOD and Adda and H-Glu-Mdhb-MeAsp-Arg-OH and H-Adda-Glu-Mdhb-MeAsp-OH and H-Adda-Glu-Mdhb-MeAsp-Cit-OH
- cleaved bond (MlrA): Arg-Adda, first_seen
- not cleaved [6]: remaining essentially unchanged
- cleaved bond (recombinant MlrA): Arg-Adda, first_seen
